In patent publication US20240254089A1, “MODULATORS OF MAS-RELATED G-PROTEIN RECEPTOR X4 AND RELATED PRODUCTS AND METHODS” (ESCIENT PHARMACEUTICALS, INC., priority 2020, published 2024):

Target: T1, human MRGPR X4 (Homo sapiens, UniProt Q96LA9)
T1 construct: expressed in transfected cells
Assay: MRGPR X4 antagonist activity, IP-One Gq HTRF assay in stably transfected HEK cells
Assay type: cell-based
Conditions: not given
Procedure, shortened: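 IC50 comes from HTRF IP-1 accumulation in stably transfected HEK cells expressing human MRGPR X4. Compounds (10 uM top, 1:3 serial, 10 points) were co-incubated with 10 μM bilirubin, 20 μM deoxycholic acid or 100 μM conjugated bilirubin in LiCl-containing buffer, pH 8, for 1 h at 37 °C plus 30 min at room temperature.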

T1 sequence (Q96LA9 whole entry): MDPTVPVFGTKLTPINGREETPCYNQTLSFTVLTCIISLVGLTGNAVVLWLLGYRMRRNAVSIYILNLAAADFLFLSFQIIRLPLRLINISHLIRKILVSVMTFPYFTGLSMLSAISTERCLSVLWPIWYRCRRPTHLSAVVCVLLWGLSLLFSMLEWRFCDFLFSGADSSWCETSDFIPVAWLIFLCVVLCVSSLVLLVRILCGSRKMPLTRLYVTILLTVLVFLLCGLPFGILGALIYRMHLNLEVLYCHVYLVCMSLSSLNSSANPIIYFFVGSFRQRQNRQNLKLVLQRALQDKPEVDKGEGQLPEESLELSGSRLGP

First: Cc1ncccc1CCNC(=O)c1nn(Cc2ccc(Cl)cc2)c2ccccc12 [Compound 44]
Second: O=C(NCCc1ccccc1O)c1nn(Cc2ccc(Cl)cc2)c2ccccc12 [Compound 20]
The IC50 of the first is higher: 100 to 500 nM for the first, under 100 nM for the second. The second is the more potent here.

O=C(NCC(O)c1cccnc1)c1cn(Cc2ccc(Cl)cc2)c2ccccc12 (stereo not shown) [Compound 150] and O=C(NCCc1cnccn1)c1cn(Cc2ccc(Cl)cc2)c2ccccc12 [Compound 171] fall in the same range of IC50: 100 to 500 nM for the first, 100 to 500 nM for the second.

O=C(NCCc1nnc2ccccn12)c1nn(CCC2CCCCC2)c2ccccc12 [Compound 402, N-(2-([1,2,4]triazolo[4,3-a]pyridin-3-yl)ethyl)-1-(2-0cyclohexylethyl)-1H-indazole-3-carboxamide] and O=C(NCCc1nnc2ccccn12)c1nn(CCCC2CCCC2)c2ccccc12 [Compound 487] fall in the same range of IC50: 100 to 500 nM for the first, 100 to 500 nM for the second.

First: COc1ccc(-c2nc(Cn3nc(C(=O)NCCc4nnc5ccccn45)c4ccccc43)cs2)cc1 [Compound 499]
Second: O=C(NCCc1nnc2ccccn12)c1nn(Cc2ccc(F)cc2)c2ccccc12 [Compound 51]
The IC50 of the first is higher: 501 to 1000 nM for the first, 100 to 500 nM for the second.

Cc1ccc(Cn2nc(C(=O)NCCc3nncn3C)c3ccccc32)cc1 [Compound 107] and CC(C)n1cnnc1CCNC(=O)c1nn(Cc2ccc(Cl)cc2)c2ccccc12 [Compound 99] fall in the same range of IC50: 1000 to 2500 nM for the first, 1000 to 2500 nM for the second.

Compared with O=C(NCCc1cccc(OC(F)(F)F)c1)c1cn(Cc2ccc(Cl)cc2)c2ccccc12 [Compound 200], Cc1cccc(CCNC(=O)c2cn(Cc3ccc(Cl)cc3)c3ccccc23)c1 [Compound 180] is lower in IC50: 1000 to 2500 nM for the first, 100 to 500 nM for the second.

First: O=C(NCCc1cccc(F)c1)c1cn(Cc2cccc(F)c2)c2ccccc12 [Compound 199]
Second: O=C(NCCc1ccncc1)c1cn(Cc2cccc(F)c2)c2ccccc12 [Compound 219]
The IC50 of the first is lower: 501 to 1000 nM for the first, 1000 to 2500 nM for the second.

Cc1ccc(Cn2nc(C(=O)NCCc3ccco3)c3ccccc32)cc1 [Compound 122] and O=C(NCCc1ccon1)c1nn(Cc2ccc(Cl)cc2)c2ccccc12 [Compound 100] fall in the same range of IC50: 1000 to 2500 nM for the first, 1000 to 2500 nM for the second.

O=C(NCCc1ccc(C(F)(F)F)nc1)c1cn(Cc2ccc(Cl)cc2)c2ccccc12 [Compound 197] and N#Cc1ccc(CCNC(=O)c2cn(Cc3ccc(Cl)cc3)c3ccccc23)cn1 [Compound 185] fall in the same range of IC50: 501 to 1000 nM for the first, 501 to 1000 nM for the second.

O=C(NCc1cccc2nc[nH]c12)c1nn(Cc2ccc(Cl)cc2)c2ccccc12 [Compound 475] and O=C(NCc1ccnc2[nH]ccc12)c1nn(Cc2ccc(Cl)cc2)c2ccccc12 [Compound 386] cannot be ordered by IC50: over 2500 nM for the first, over 2500 nM for the second.

CC(c1ccc(Cl)cc1)n1nc(C(=O)NCCc2nc3c(s2)CCCC3)c2ccccc21 (stereo not shown) [Compound 118] and Cc1cc(Cl)ccc1Cn1nc(C(=O)NCCc2nc3c(s2)CCCC3)c2ccccc21 [Compound 98] fall in the same range of IC50: 1000 to 2500 nM for the first, 1000 to 2500 nM for the second.

First: O=C(NCCc1nnc2ccccn12)c1nn(CCc2ccc(C(F)(F)F)cc2)c2ccccc12 [Compound 441]
Second: O=C(NCCc1nnc2ccccn12)c1nn(Cc2ccc(C3CC3)cc2)c2ccccc12 [Compound 490]
The IC50 of the first is higher: 1000 to 2500 nM for the first, under 100 nM for the second.

Compared with O=C(NCc1ccc(-n2ccnc2)cc1)c1nn(Cc2ccc(Cl)cc2)c2ccccc12 [Compound 426], CNC(=O)c1cccc(CNC(=O)c2nn(Cc3ccc(Cl)cc3)c3ccccc23)c1 [Compound 399] is higher in IC50: 1000 to 2500 nM for the first, over 2500 nM for the second.

First: Cc1[nH]c2ccc(O)cc2c1CCNC(=O)c1nn(Cc2ccc(Cl)cc2)c2ccccc12 [Compound 416]
Second: COc1ccc(CCNC(=O)c2nn(Cc3ccc(Cl)cc3)c3ccccc23)cn1 [Compound 364]
The IC50 of the first is lower: under 100 nM for the first, 100 to 500 nM for the second. The first is the more potent here.

First: O=C(NCCN1CCCc2ccccc21)c1nn(Cc2ccc(Cl)cc2)c2ccccc12 [Compound 373]
Second: O=C(NCCOc1ccccc1)c1nn(Cc2ccc(Cl)cc2)c2ccccc12 [Compound 381]
The IC50 of the first is lower: 501 to 1000 nM for the first, 1000 to 2500 nM for the second. The first is the more potent here.

COc1ccc(CCNC(=O)c2cn(Cc3cccc(F)c3)c3ccccc23)cn1 [Compound 216] and O=C(NCCc1ccccn1)c1cn(Cc2cccc(F)c2)c2ccccc12 [Compound 214] fall in the same range of IC50: 1000 to 2500 nM for the first, 1000 to 2500 nM for the second.

First: O=C(O)c1nn(Cc2ccc(Cl)cc2)c2cccc(F)c12 [Compound 327]
Second: O=C(O)c1nn(Cc2ccc(Cl)cc2)c2ccc(Cl)cc12 [Compound 320]
The IC50 of the first is higher: over 2500 nM for the first, 1000 to 2500 nM for the second.

Cc1ccc(Cn2cc(C(=O)NCCc3ccncc3)c3ccccc32)cc1 [Compound 172] and COc1ccc(CCNC(=O)c2cn(Cc3ccc(Cl)cc3)c3ccccc23)cc1 [Compound 182] fall in the same range of IC50: 100 to 500 nM for the first, 100 to 500 nM for the second.

COc1ncccc1CCNC(=O)c1cn(Cc2ccc(Cl)cc2)c2ccccc12 [Compound 155] and Cc1ccc(CCNC(=O)c2cn(Cc3ccc(Cl)cc3)c3ccccc23)c(C)n1 [Compound 156] fall in the same range of IC50: 100 to 500 nM for the first, 100 to 500 nM for the second.

First: CC(C)c1cc(CNC(=O)c2nn(Cc3ccc(Cl)cc3)c3ccccc23)on1 [Compound 422]
Second: O=C(NCCc1noc(-c2ccccc2)n1)c1nn(Cc2ccc(Cl)cc2)c2ccccc12 [Compound 105]
The IC50 of the first is higher: over 2500 nM for the first, 1000 to 2500 nM for the second. The second is the more potent here.

First: O=C(NCCc1cccc(C(F)(F)F)n1)c1nn(Cc2ccc(Cl)cc2)c2ccccc12 [Compound 117]
Second: CC(C)c1ccc(Cn2nc(C(=O)NCCc3ccccn3)c3ccccc32)cc1 [Compound 91]
The IC50 of the first is higher: 1000 to 2500 nM for the first, 501 to 1000 nM for the second.

Cc1ccc(Cn2nc(C(=O)NCCc3nnc4n3CCCCC4)c3cccc(F)c32)cc1 [Compound 116] and Cc1ccc(Cn2nc(C(=O)NCCc3nc4c(s3)CCCC4)c3cc(Cl)ccc32)cc1 [Compound 110] fall in the same range of IC50: 1000 to 2500 nM for the first, 1000 to 2500 nM for the second.

Compared with O=C(Cn1nc(C(=O)NCCc2nnc3ccccn23)c2ccccc21)c1ccc(Cl)cc1 [Compound 481], Cc1cc(Cl)ccc1Cn1nc(C(=O)NCCc2nnc3ccccn23)c2ccccc21 [Compound 554] is lower in IC50: 501 to 1000 nM for the first, under 100 nM for the second. The second is the more potent here.

COc1cc(Cn2nc(C(=O)NCCc3cccnc3)c3ccccc32)ccc1Cl [Compound 43, 1-(4-chloro-3-methoxybenzyl)-N-(2-(pyridin-3-yl)ethyl)-1H-indazole-3-carboxamide] and O=C(NCCc1cccnc1)c1nn(Cc2ccc(OC(F)F)cc2)c2ccccc12 [Compound 42] fall in the same range of IC50: 100 to 500 nM for the first, 100 to 500 nM for the second.

Compared with O=C(NCCc1cccnc1)c1cn(Cc2ccc(OC(F)F)cc2)c2ccccc12 [Compound 166], O=C(NCCc1cccnc1)c1cn(Cc2cccc(OC(F)(F)F)c2)c2ccccc12 [Compound 186] is higher in IC50: 100 to 500 nM for the first, 501 to 1000 nM for the second. The first is the more potent here.

First: Cc1nc(Cn2nc(C(=O)NCCc3nnc4ccccn34)c3ccccc32)nc2ccccc12 [Compound 431]
Second: O=C(NCCc1nnc2ccccn12)c1nn(Cc2ccc(Cl)c(Cl)c2)c2ccccc12 [Compound 526]
The IC50 of the first is higher: 1000 to 2500 nM for the first, under 100 nM for the second. The second is the more potent here.

First: O=C(Nc1cncnc1)c1nn(Cc2ccc(Cl)cc2)c2ccccc12 [Compound 133]
Second: O=C(Nc1cccnc1)c1nn(Cc2ccc(Cl)cc2)c2ccccc12 [Compound 130]
The IC50 of the first is lower: 1000 to 2500 nM for the first, over 2500 nM for the second.

First: O=C(NCCc1ccc(Cl)c(F)c1)c1cn(Cc2ccccc2F)c2ccccc12 [Compound 224]
Second: O=C(NCCc1c[nH]c2ccccc12)c1nn(Cc2ccc(OC(F)(F)F)cc2)c2ccccc12 [Compound 93]
The IC50 of the first is higher: over 2500 nM for the first, 1000 to 2500 nM for the second. The second is the more potent here.

First: O=C(NCCc1nnc2ccccn12)c1nn(Cc2ccc3c(c2)OCO3)c2ccccc12 [Compound 508]
Second: N#Cc1cccc(Cn2nc(C(=O)NCCc3nnc4ccccn34)c3ccccc32)c1 [Compound 446]
The IC50 of the first is lower: 100 to 500 nM for the first, 1000 to 2500 nM for the second. The first is the more potent here.

O=C(NCCc1nnc2ccccn12)c1nn(CC2CCC(F)(F)CC2)c2ccccc12 [Compound 489] and N#Cc1ccc2nc(CNC(=O)c3nn(Cc4ccc(Cl)cc4)c4ccccc34)cn2c1 [Compound 424] fall in the same range of IC50: 501 to 1000 nM for the first, 501 to 1000 nM for the second.

For COc1cc(Cn2nc(C(=O)O)c3ccccc32)ccc1Cl [Compound 329], the IC50 was over 2500 nM.

Same assay, conditions: versus 20 μM deoxycholic acid agonist; HEK cells expressing human MRGPR X4; read-out: MRGPRX4 Antagonist Activity

COc1ccc(Cn2nc(C(=O)NS(=O)(=O)c3cccc(C)c3)c3ccccc32)cc1 [Compound 293] and Cc1cccc(S(=O)(=O)NC(=O)c2nn(Cc3ccc(Cl)cc3)c3ccccc23)c1 [Compound 279] fall in the same range of IC50: 1000 to 2500 nM for the first, 1000 to 2500 nM for the second.

First: COc1ccc(S(=O)(=O)NC(=O)c2nn(Cc3ccc(OC(F)F)cc3)c3ccccc23)cc1 [Compound 289]
Second: Cc1cc(C)cc(S(=O)(=O)NC(=O)c2nn(Cc3ccc(OC(F)F)cc3)c3ccccc23)c1 [Compound 268]
The IC50 of the first is higher: 1000 to 2500 nM for the first, 501 to 1000 nM for the second.

Compared with O=C(NCCn1cc(C2CCNCC2)nn1)c1nn(Cc2ccc(Cl)cc2)c2ccccc12 [Compound 146], O=C(NCCC(=O)N1CCOCC1)c1nn(Cc2ccc(Cl)cc2)c2ccccc12 [Compound 401] is lower in IC50: over 2500 nM for the first, 501 to 1000 nM for the second.

Cc1cccc(S(=O)(=O)NC(=O)c2nn(Cc3ccc(OC(F)(F)F)cc3)c3ccccc23)c1 [Compound 272] and O=C(NS(=O)(=O)c1ccc(Cl)cc1Cl)c1nn(Cc2ccc(OC(F)F)cc2)c2ccccc12 [Compound 294] fall in the same range of IC50: 1000 to 2500 nM for the first, 1000 to 2500 nM for the second.

O=C(Cn1nc(C(=O)NCCc2nnc3ccccn23)c2ccccc21)NCC1CCCCC1 [Compound 472] and O=C(NCCc1nnc(C2CCOCC2)[nH]1)c1nn(Cc2cccc(F)c2)c2ccccc12 [Compound 129] cannot be ordered by IC50: over 2500 nM for the first, over 2500 nM for the second.

First: CNC(=O)CS(=O)(=O)c1cn(Cc2ccc(Cl)cc2)c2ccccc12 [Compound 250]
Second: O=C(CS(=O)(=O)c1cn(Cc2ccc(Cl)cc2)c2ccccc12)Nc1ccccn1 [Compound 241]
The IC50 of the first is higher: 1000 to 2500 nM for the first, 100 to 500 nM for the second.

First: Cc1cc(Cl)ccc1Cn1nc(C(=O)O)c2ccccc21 [Compound 324]
Second: Cc1nc(S(=O)(=O)NC(=O)c2nn(Cc3ccc(Cl)cc3)c3ccccc23)sc1C [Compound 271]
The IC50 of the first is higher: over 2500 nM for the first, 1000 to 2500 nM for the second. The second is the more potent here.

O=C(NCCOCc1ccccc1)c1nn(Cc2ccc(Cl)cc2)c2ccccc12 [Compound 337] and COc1cccc(CS(=O)(=O)NC(=O)c2nn(Cc3ccc(Cl)cc3)c3ccccc23)c1 [Compound 300] cannot be ordered by IC50: over 2500 nM for the first, over 2500 nM for the second.

First: O=C(CS(=O)(=O)c1cn(Cc2ccc(Cl)cc2)c2ccccc12)Nc1ccc(Cl)cc1 [Compound 256]
Second: COc1cccc(NC(=O)CS(=O)(=O)c2cn(Cc3ccc(Cl)cc3)c3ccccc23)c1 [Compound 238]
The IC50 of the first is higher: over 2500 nM for the first, 100 to 500 nM for the second.
